{"source": "paper PMC8623179", "about": "“Design and Microwave Synthesis of New (5Z) 5-Arylidene-2-thioxo-1,3-thiazolinidin-4-one and (5Z) 2-Amino-5-arylidene-1,3-thiazol-4(5H)-one as New Inhibitors of Protein Kinase DYRK1A” (Pharmaceuticals, 2021)", "key": {"GSK-3α/β [1]": {"test_system": "GSK-3α/β", "conditions": "read-out: IC50 GSK3α/β, positive control, cited from earlier work"}, "DYRK1A [2]": {"test_system": "DYRK1A", "conditions": "reported; cited from earlier work"}, "Casein kinase 1 (CK1δ/ε) [3]": {"molecular_target": "Casein kinase 1 (CK1δ/ε)", "conditions": "read-out: IC50 CK1, positive control, cited from earlier work"}, "NCI-H727": {"test_system": "NCI-H727", "assay": "Cell survival assay, NCI-H727", "format": "cell-based", "conditions": "Homo sapiens, 48 h exposure, nuclei count, read-out: Cell Lines IC50 NCI-H727", "procedure": "(§1) Skin diploid fibroblastic cells were provided by BIOPREDIC International Company (Rennes, France). […] Cells were grown according to ECACC recommendations. The toxicity test of the compounds on these cells was as follows: 2 × 10^3 cells for HCT-116 cells or 4 × 10^3 for the other cells were seeded in 96-multi-well plates in triplicate and left for 24 h for attachment, spreading and growing. Then, cells were exposed for 48 h to increasing concentrations of the compounds, ranging from […], in a final volume of 120 μL of culture medium. […] The IC50 were graphically determined."}, "GSK-3α/β [4]": {"molecular_target": "GSK-3α/β", "assay": "GSK-3α/β kinase assay", "format": "biochemical, porcine", "conditions": "Table 4; 15 μM ATP; read-out: IC50 GSK3α/β", "procedure": "(§2) The twenty-two (5Z) 5-arylidene-2-thioxo-1,3-thiazolidin-4-ones 3a–v and the twenty-four (5Z) 2-amino-5-arylidene-1,3-thiazolidin-4(5H)-ones 5a–x were evaluated against four different and representative in vitro kinase assays DYRK1A (dual specificity tyrosine phosphorylation regulated kinase), CK1 δ/e (caseine kinase 1), CDK5/p25 (cyclin dependant kinase), and GSK3 α/β (glycogen synthase kinase 3) to evaluate their inhibition potency. […] All the compounds were initially tested at a 10 μM concentration.\n(§3) After 30-min incubation at 30 °C, the reaction was stopped by harvesting, using a FilterMate harvester (Packard), onto P81 phospho-cellulose papers (GE Healthcare, Chicago, IL, USA) which were washed in 1% phosphoric acid. Scintillation fluid was added and the radioactivity measured in a Packard counter. Blank values were subtracted and activities calculated as pmoles of phosphate incorporated for the 30-min incubation. The activities were expressed in % of the maximal activity, i.e., in the absence of inhibitors. Controls were performed with appropriate dilutions of DMSO.\nGSK-3α/β (porcine brain, native) was assayed, as described for CDK5/p25 but in Buffer A and using a GSK-3 specific substrate (GS-1: […]pEDEEE) (pS stands for phosphorylated serine). GS-1 was synthesized by Millegen (Labege, France)."}, "MDA-MB231": {"test_system": "MDA-MB231", "assay": "Cell survival assay, MDA-MB231", "format": "cell-based", "conditions": "Homo sapiens, MDA-MB-231; 48 h exposure, nuclei count; read-out: Cell Lines IC50 MDA-MB231", "procedure": "as §1"}, "Huh7 D12": {"test_system": "Huh7 D12", "assay": "Cell survival assay, Huh7 D12", "format": "cell-based", "conditions": "Huh-7D12; 48 h exposure, nuclei count; read-out: Cell Lines IC50 Huh7 D12", "procedure": "as §1"}, "Casein kinase 1 (CK1δ/ε) [5]": {"molecular_target": "Casein kinase 1 (CK1δ/ε)", "assay": "CK1δ/ε kinase assay", "format": "biochemical, porcine", "conditions": "Table 4; 15 μM ATP; read-out: IC50 CK1", "procedure": "as §2, §3\nCasein kinase 1 (CK1δ/ε) (porcine brain, native) was assayed with 0.67 µg of CKS peptide ([…]pSAYSITA), a CK1 specific substrate obtained from Millegen (Labege, France)."}, "PC3": {"test_system": "PC3", "assay": "Cell survival assay, PC3", "format": "cell-based", "conditions": "Homo sapiens, PC-3; 48 h exposure, nuclei count; read-out: Cell Lines IC50 PC3", "procedure": "as §1"}, "Fibroblasts": {"test_system": "Fibroblasts", "assay": "Cell survival assay, normal skin diploid fibroblasts", "format": "cell-based", "conditions": "Fibroblast; normal cells, 48 h exposure, nuclei count; read-out: Cell Lines IC50 Fibroblasts", "procedure": "as §1"}, "DYRK1A [6]": {"molecular_target": "T1, DYRK1A (Rattus norvegicus, UniProt Q63470)", "T1 construct": "GST; made in house; host or cells: Escherichia coli", "assay": "DYRK1A kinase assay", "format": "biochemical", "conditions": "Table 4; 15 μM ATP", "procedure": "as §2\nas §3, with “DMSO. […]” for “DMSO.”"}, "CDK5/p25": {"molecular_target": "T2, CDK5/p25 (Homo sapiens, UniProt Q00535)", "T2 construct": "made in house", "T2 sequence (Q00535 whole entry)": "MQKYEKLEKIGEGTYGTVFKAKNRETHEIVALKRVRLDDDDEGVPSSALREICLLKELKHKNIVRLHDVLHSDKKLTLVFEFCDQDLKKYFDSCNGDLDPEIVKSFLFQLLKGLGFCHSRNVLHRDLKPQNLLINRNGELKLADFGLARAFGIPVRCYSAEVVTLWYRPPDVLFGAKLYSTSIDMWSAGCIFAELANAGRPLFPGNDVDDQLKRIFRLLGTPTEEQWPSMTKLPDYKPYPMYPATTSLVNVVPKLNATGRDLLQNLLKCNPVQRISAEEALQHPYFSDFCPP", "T2 sequence (Q15078 99-307 partner limits assumed)": "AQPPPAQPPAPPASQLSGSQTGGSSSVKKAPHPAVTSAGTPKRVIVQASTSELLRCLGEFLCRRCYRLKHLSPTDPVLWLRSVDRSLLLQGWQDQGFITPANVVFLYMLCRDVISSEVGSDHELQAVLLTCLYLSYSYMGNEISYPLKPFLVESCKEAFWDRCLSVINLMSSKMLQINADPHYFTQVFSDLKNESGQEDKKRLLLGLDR", "assay": "CDK5/p25 kinase assay", "format": "biochemical", "conditions": "Table 4; 15 μM ATP", "procedure": "as §2, §3\nCDK5/p25 (human, recombinant) was prepared as previously described. […] ATP (3000 Ci/mmol; 10 mCi/mL) in a final volume of 30 μL. After 30-min incubation at 30 °C, 25 μL aliquots of supernatant were spotted onto 2.5 × 3 cm pieces of Whatman P81 phospho-cellulose paper, and, 20 s later, the filters were washed five times (for at least 5 min each time) in a solution of 10 mL phosphoric acid/litter of water. The wet filters were counted in the presence of 1 mL ACS (Amersham, UK) scintillation fluid."}, "HCT116": {"test_system": "HCT116", "assay": "Cell survival assay, HCT116", "format": "cell-based", "conditions": "Homo sapiens, HCT-116; 48 h exposure, nuclei count; read-out: Cell Lines IC50 HCT116", "procedure": "as §1"}, "Caco2": {"test_system": "Caco2", "assay": "Cell survival assay, Caco2", "format": "cell-based", "conditions": "Homo sapiens, Caco-2; 48 h exposure, nuclei count; read-out: Cell Lines IC50 Caco2", "procedure": "as §1"}, "[7]": {"conditions": "Table 5, same values as Table 4"}}, "note": "Values joined by “and” are separate entries in the source; they are usually repeats but may differ in a detail not shown here. Identical values can stand only once. Like-named read-outs stand apart in the source and are kept apart here."}
{"smiles": "COc1ccc2c(c1)[nH]c1c(C)nccc12", "note": "[Harmine]", "values": [{"measurement": "IC50", "setting": "GSK-3α/β [1]; Table 4", "result": "> 10", "unit": "µM"}, {"measurement": "IC50", "setting": "GSK-3α/β [1]; [7]", "result": "> 10", "unit": "µM"}, {"measurement": "IC50", "setting": "DYRK1A [2]", "result": "[…]"}, {"measurement": "IC50", "setting": "Casein kinase 1 (CK1δ/ε) [3]; Table 4", "result": 1.5, "unit": "µM"}, {"measurement": "IC50", "setting": "Casein kinase 1 (CK1δ/ε) [3]; [7]", "result": 1.5, "unit": "µM"}]}
{"smiles": "COc1ccc(/C=C2\\SC(=S)NC2=O)cc1O", "note": "[Compound 3b, (5Z)-5-(3-Hydroxy-4-methoxybenzylidene)-2-thioxo-1,3-thiazolidin-4-one]", "values": [{"measurement": "IC50", "setting": "NCI-H727", "result": "> 25", "unit": "µM"}, {"measurement": "IC50", "setting": "GSK-3α/β [4]", "result": "> 10", "unit": "µM"}, {"measurement": "IC50", "setting": "MDA-MB231", "result": "> 25", "unit": "µM"}, {"measurement": "IC50", "setting": "Huh7 D12", "result": "> 25", "unit": "µM"}, {"measurement": "IC50", "setting": "Casein kinase 1 (CK1δ/ε) [5]", "result": "> 10", "unit": "µM"}, {"measurement": "IC50", "setting": "PC3", "result": "> 25", "unit": "µM"}, {"measurement": "melting point", "result": "222 to 224", "unit": "°C"}, {"measurement": "IC50", "setting": "Fibroblasts", "result": "> 25", "unit": "µM"}, {"measurement": "IC50", "setting": "DYRK1A [6]", "result": 1.4, "unit": "µM"}, {"measurement": "IC50", "setting": "CDK5/p25", "result": "> 10", "unit": "µM"}, {"measurement": "IC50", "setting": "HCT116", "result": "> 25", "unit": "µM"}, {"measurement": "IC50", "setting": "Caco2", "result": "> 25", "unit": "µM"}]}
